# Experimental data from patent US9193669B2, “Compounds for treating ophthalmic diseases and disorders” (Acucela Inc., priority 2008, dated 2015).
# Assays:
# [1] = molecular target: T1, recombinant human RPE65 and LRAT (Homo sapiens, UniProt Q16518); test: Human in vitro isomerase inhibition reaction; type: biochemical; details: human in vitro isomerase assay, FIG. 1 and FIG. 2
# T1 construct: made in house; host or cells: HEK293 cell clone (homogenate) for RPE65 and LRAT; E. coli TOP10 for CRALBP
# T1 sequence (Q16518 2-533 limits assumed): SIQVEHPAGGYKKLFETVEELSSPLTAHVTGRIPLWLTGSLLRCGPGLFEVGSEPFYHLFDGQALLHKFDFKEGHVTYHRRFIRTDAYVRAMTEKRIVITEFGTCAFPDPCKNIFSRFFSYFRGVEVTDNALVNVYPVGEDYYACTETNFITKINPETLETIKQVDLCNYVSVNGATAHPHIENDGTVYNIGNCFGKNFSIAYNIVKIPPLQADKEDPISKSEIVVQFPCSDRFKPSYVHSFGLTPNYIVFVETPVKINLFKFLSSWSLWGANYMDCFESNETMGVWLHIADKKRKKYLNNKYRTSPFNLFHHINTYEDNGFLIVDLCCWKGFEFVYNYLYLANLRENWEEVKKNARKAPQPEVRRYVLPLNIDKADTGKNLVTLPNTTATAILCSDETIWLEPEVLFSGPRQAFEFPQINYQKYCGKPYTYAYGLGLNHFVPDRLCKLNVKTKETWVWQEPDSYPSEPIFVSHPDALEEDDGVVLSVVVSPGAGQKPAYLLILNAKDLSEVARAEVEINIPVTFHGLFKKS
# Procedure: A homogenate of HEK293 cell clone expressing recombinant human RPE65 and LRAT were the source of the visual enzymes, and exogenous all-trans-retinol (about 20 μM) was used as the substrate. […] The 200 μL Bis-Tris Phosphate buffer (10 mM, pH 7.2) based reaction mixture also contains 0.5% BSA, and 1 mM NaPPi. In this assay, the reaction was carried out at 37° C. in duplicates for one hour and was terminated by addition of 300 μL methanol. The amount of reaction product, 11-cis-retinol, was measured by HPLC analysis following Heptane extraction of the reaction mixture.
# isomerase = molecular target: T2, isomerase (Mus musculus, UniProt Q91ZQ5); test: In vivo murine isomerase assay; design: species or system mice; details: for inhibition in vivo at 1 mg/kg: mouse, po, 4 h, read-out: % Inibition 1 mg/kg, 4 h
# T2 construct: The recovery of 11-cis-retinal after bleaching can be used to estimate the activity of isomerase in vivo; from tissue; host or cells: eyes of living mice (CD-1; Balb/c also named)
# T2 sequence (Q91ZQ5 1-533): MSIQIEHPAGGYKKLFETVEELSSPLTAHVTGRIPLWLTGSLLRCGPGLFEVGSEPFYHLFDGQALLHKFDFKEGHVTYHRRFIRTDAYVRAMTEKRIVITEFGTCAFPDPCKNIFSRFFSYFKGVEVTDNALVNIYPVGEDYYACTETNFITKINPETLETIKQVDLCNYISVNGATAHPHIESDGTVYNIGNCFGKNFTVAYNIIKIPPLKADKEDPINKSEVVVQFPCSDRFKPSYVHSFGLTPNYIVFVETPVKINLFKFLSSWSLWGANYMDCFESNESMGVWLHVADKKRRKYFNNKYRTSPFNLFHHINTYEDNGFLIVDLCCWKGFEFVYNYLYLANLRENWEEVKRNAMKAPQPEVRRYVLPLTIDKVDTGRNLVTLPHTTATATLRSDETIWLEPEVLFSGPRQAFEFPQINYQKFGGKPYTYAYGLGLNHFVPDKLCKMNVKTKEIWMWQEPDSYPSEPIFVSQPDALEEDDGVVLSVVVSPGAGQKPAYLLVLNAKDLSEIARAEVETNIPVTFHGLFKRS
# Procedure: The capability of compounds described herein to inhibit isomerase was determined by an in vivo murine isomerase assay. Brief exposure of the eye to intense light (“photobleaching” of the visual pigment or simply “bleaching”) is known to photo-isomerize almost all 11-cis-retinal in the retina. The recovery of 11-cis-retinal after bleaching can be used to estimate the activity of isomerase in vivo. Delayed recovery, as represented by lower 11-cis-retinal oxime levels, indicates inhibition of isomerization reaction. Procedures were performed essentially as described by Golczak et al., Proc. Natl. Acad. Sci. […] Mice were gavaged with the compounds described in the present disclosure. After about 2-24 hours in the dark, the mice were exposed to photobleaching of about 5,000 lux of white light for 10 minutes. The mice were allowed to recover for about 2 hours in the dark. The animals were then sacrificed by carbon dioxide inhalation. Retinoids were extracted from the eye and the regeneration of 11-cis-retinal was assessed at various time intervals. […] After the mice were sacrificed, the eyes were immediately removed and placed in liquid nitrogen for storage. The eyes were placed in about 500 μL of bis-tris propane buffer (10 mM, pH˜7.3) and about 20 μl of 0.8M hydroxylamine (pH˜7.3). The eyes were cut up into small pieces with small iris scissors and then thoroughly homogenized at 30000 rpm with a mechanical homogenizer (Polytron PT 1300 D) in the tube until no visible tissue remains. About 500 μL of methanol and about 500 μL of heptane was added to each tube. The tubes were attached to a vortexer so that the contents are mixed thoroughly for about 15 minutes in room temperature. […] The samples were analyzed on an Agilent 1100 HPLC system with normal phase column: SILICA (Beckman Coutlier, dp 5 μm, […]). […] Loading volume for each sample was about 100 μl; detection wavelength is 360 nm. The area under the curve for 11-cis-retinal oxime was calculated by Agilent Chemstation software and recorded manually. Data processing was performed using Prizm software. Positive control mice (no compound administered) were sacrificed fully dark-adapted and the eye retinoids analyzed. Light (bleached) control mice (no compound administered) were sacrificed and retinoids isolated and analyzed immediately after light treatment. A time course study was also performed to determine the isomerase inhibitory activity of compounds of the present disclosure. Female or male mice (such as Balb/c mice) (at least 4/group) received 0 to about 5 mg of compounds (in water) per kg bodyweight orally, by gavage. The animals were then “photo-bleached” (about 5000 Lux white light for about 10 minutes) at about 2, 4, 8, 16 and 24 hours after dosing, and returned to darkness to allow recovery of the 11-cis-retinal content of the eyes. Mice were sacrificed about 2 hours after bleaching, eyes were enucleated, and retinoid content was analyzed by HPLC. A dose response in vivo isomerase inhibition study is performed with compounds of the present disclosure. Male or female mice (such as Balb/c mice)(at least about 8/group) are dosed orally with about 0.01 to 25 mg/kg of the compounds of HCl salts of the compounds in sterile water as solution, and photobleached about 4 hours after dosing. Recovery and retinoid analysis is performed as described above. Dark control mice are vehicle-only treated, sacrificed fully dark adapted without light treatment, and analyzed. […]
inhibition of 11-cis-retinol production [1],inhibition in vivo at 1 mg/kg (isomerase) [%],"% Inibition 1 mg/kg, 24 h (isomerase; 1 mg/kg oral, 24 h after dosing, inhibition of 11-cis-retinal (oxime) recovery after photobleach) [%]",SMILES
dose-dependent inhibition,-11.7 ± 4.36,,"NCCC(O)c1cccc(NS(=O)(=O)C2CCCCC2)c1 (centres unmarked) [Example 5, N-(3-(3-amino-1-hydroxypropyl)phenyl)cyclohexanesulfonamide]"
dose-dependent inhibition,-11.9 ± 18.2,48.70 ± 2.71,"NCCCc1cccc(NS(=O)(=O)C2CCCCC2)c1 [Example 6, N-(3-(3-aminopropyl)phenyl)cyclohexanesulfonamide]"
